Laboratory results from PMC5428509, “Irreversible inhibition of BTK kinase by a novel highly selective inhibitor CHMFL-BTK-11 suppresses inflammatory response in rheumatoid arthritis model” (Scientific Reports, 2017).

What was measured:
Experiment in all cases: biochemical
Design in all cases: KinomeScan competition binding panel (DiscoveRx), percent of control at 1 uM
Conditions in all cases: read-out: Percent Control
LRRK2(G2019S) = LRRK2(G2019S) (Homo sapiens, UniProt Q5S007, G2019S)
How it was run: (§1)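 KinomeScan technology used to profile binding across a panel of 456 kinases and mutants.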

MET = MET (Homo sapiens, UniProt P08581)
How it was run: as §1

KIT(D816V) = KIT(D816V) (Homo sapiens, UniProt P10721, D816V)
How it was run: as §1

[1] = biological target: T1, RSK4(Kin.Dom.1-N-terminal) (Homo sapiens, UniProt Q9UK32)
T1 construct: gene RPS6KA6; Kin.Dom.1-N-terminal
How it was run: as §1

DAPK1 = DAPK1 (Homo sapiens, UniProt P53355)
How it was run: as §1

BRAF = BRAF (Homo sapiens, UniProt P15056)
How it was run: as §1

[2] = biological target: T2, ABL1(E255K)-phosphorylated (Homo sapiens, UniProt P00519, E255K)
T2 construct: phosphorylated
How it was run: as §1

CLK4 = CLK4 (Homo sapiens, UniProt Q9HAZ1)
How it was run: as §1

SRPK3 = SRPK3 (Homo sapiens, UniProt Q9UPE1)
How it was run: as §1

ADCK3 = biological target: T3, ADCK3 (Homo sapiens, UniProt Q8NI60)
T3 construct: gene COQ8A
How it was run: as §1

[3] = biological target: T4, RPS6KA5(Kin.Dom.1-N-terminal) (Homo sapiens, UniProt O75582)
T4 construct: Kin.Dom.1-N-terminal
How it was run: as §1

CAMKK2 = CAMKK2 (Homo sapiens, UniProt Q96RR4)
How it was run: as §1

MET(Y1235D) = MET(Y1235D) (Homo sapiens, UniProt P08581, Y1235D)
How it was run: as §1

PAK7 = biological target: T5, PAK7 (Homo sapiens, UniProt Q9P286)
T5 construct: gene PAK5
How it was run: as §1

CDC2L5 = biological target: T6, CDC2L5 (Homo sapiens, UniProt Q14004)
T6 construct: gene CDK13
How it was run: as §1

NEK5 = NEK5 (Homo sapiens, UniProt Q6P3R8)
How it was run: as §1

CAMKK1 = CAMKK1 (Homo sapiens, UniProt Q8N5S9)
How it was run: as §1

FES = FES (Homo sapiens, UniProt P07332)
How it was run: as §1

ABL1-phosphorylated = biological target: T7, ABL1-phosphorylated (Homo sapiens, UniProt P00519)
T7 construct: phosphorylated
How it was run: as §1

CSNK1G1 = CSNK1G1 (Homo sapiens, UniProt Q9HCP0)
How it was run: as §1

AAK1 = AAK1 (Homo sapiens, UniProt Q2M2I8)
How it was run: as §1

BMPR1B = BMPR1B (Homo sapiens, UniProt O00238)
How it was run: as §1

EGFR(L858R,T790M) = EGFR(L858R,T790M) (Homo sapiens, UniProt P00533, L858R/T790M)
How it was run: as §1

MST1R = MST1R (Homo sapiens, UniProt Q04912)
How it was run: as §1

T3 sequence (Q8NI60 whole entry): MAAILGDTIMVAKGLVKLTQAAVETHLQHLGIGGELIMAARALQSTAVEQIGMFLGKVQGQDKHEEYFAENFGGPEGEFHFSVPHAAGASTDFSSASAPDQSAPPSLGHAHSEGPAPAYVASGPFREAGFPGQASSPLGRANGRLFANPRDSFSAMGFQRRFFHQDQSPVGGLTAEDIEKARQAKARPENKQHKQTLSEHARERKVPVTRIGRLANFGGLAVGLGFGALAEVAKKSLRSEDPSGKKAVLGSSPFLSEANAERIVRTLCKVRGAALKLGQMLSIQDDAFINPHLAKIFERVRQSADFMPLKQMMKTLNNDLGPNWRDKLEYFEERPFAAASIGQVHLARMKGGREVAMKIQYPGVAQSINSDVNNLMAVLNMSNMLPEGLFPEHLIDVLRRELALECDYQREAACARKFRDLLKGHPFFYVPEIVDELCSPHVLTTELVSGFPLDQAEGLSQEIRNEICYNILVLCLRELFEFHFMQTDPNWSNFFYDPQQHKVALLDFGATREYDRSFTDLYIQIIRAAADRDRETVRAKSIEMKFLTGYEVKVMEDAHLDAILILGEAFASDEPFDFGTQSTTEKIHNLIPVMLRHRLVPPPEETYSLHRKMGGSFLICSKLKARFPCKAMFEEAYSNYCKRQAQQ
MET, sequence (P08581 whole entry): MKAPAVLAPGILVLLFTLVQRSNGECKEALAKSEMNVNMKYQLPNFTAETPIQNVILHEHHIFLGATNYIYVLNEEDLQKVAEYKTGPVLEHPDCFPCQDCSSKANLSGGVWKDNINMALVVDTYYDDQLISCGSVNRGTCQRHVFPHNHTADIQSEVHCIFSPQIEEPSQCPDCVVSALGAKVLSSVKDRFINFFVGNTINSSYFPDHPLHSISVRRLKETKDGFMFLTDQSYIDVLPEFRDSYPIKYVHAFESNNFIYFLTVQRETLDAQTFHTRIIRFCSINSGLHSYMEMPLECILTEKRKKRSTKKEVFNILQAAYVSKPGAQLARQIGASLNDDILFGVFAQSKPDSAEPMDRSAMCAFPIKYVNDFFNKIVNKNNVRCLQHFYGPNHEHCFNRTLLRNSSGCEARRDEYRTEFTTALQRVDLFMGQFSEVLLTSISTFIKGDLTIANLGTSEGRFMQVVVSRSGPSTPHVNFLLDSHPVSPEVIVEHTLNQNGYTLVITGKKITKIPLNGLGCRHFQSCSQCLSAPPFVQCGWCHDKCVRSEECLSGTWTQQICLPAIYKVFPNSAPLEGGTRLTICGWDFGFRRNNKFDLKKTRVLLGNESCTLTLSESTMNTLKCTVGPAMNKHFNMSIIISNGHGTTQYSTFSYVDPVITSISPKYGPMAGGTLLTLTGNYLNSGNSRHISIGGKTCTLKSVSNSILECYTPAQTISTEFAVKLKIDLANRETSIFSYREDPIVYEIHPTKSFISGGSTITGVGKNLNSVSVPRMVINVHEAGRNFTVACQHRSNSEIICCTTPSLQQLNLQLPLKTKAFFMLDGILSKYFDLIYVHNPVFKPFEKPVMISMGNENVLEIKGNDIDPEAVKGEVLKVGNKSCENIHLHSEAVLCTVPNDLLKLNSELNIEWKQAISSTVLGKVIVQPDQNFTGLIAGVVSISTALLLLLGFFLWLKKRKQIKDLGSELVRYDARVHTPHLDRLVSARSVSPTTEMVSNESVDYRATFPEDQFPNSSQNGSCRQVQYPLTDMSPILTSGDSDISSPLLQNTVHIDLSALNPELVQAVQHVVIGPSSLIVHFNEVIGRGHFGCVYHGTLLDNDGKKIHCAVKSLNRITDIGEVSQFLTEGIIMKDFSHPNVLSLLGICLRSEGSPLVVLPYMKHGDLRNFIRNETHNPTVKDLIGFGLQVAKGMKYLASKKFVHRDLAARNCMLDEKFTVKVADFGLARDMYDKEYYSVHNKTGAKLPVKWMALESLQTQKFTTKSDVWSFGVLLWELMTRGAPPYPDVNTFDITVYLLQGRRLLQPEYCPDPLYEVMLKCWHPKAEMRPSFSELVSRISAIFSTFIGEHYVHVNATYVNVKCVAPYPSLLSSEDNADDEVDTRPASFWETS
T5 sequence (Q9P286 whole entry): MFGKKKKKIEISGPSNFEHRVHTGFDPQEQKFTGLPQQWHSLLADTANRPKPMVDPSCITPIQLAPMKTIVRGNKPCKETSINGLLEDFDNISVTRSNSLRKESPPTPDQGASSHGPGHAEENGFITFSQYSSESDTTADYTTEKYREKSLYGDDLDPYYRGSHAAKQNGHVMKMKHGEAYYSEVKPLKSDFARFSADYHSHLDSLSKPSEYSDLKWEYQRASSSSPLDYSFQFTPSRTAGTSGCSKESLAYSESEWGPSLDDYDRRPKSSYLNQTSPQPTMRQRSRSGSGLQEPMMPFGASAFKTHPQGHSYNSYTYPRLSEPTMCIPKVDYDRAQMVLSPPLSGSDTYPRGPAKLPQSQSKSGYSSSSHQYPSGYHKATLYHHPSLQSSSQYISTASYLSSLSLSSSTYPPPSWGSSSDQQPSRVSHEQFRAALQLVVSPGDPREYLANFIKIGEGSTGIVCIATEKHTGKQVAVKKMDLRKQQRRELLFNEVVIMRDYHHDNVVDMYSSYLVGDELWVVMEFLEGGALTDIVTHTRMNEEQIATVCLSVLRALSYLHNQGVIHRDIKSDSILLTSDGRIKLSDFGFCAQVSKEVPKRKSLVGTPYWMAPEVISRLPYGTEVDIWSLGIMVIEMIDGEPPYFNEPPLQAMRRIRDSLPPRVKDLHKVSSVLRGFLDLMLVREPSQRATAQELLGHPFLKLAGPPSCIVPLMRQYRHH
CAMKK2, sequence (Q96RR4 whole entry): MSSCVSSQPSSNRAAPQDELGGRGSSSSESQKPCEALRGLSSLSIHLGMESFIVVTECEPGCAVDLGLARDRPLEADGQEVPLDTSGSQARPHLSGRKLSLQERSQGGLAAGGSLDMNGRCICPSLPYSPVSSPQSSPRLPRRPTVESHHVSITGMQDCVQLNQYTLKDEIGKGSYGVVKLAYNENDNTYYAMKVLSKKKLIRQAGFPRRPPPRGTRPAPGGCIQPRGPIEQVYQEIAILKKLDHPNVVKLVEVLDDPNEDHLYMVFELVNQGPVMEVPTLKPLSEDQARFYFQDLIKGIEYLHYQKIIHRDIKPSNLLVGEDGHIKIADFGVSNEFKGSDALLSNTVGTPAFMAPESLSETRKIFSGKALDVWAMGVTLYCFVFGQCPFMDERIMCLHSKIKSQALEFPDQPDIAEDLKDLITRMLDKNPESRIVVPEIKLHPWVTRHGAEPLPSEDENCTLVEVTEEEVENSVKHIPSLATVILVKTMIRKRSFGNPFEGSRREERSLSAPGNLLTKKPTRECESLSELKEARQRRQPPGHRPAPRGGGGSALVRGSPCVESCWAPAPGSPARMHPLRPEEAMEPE
KIT(D816V), sequence (P10721 whole entry D816V): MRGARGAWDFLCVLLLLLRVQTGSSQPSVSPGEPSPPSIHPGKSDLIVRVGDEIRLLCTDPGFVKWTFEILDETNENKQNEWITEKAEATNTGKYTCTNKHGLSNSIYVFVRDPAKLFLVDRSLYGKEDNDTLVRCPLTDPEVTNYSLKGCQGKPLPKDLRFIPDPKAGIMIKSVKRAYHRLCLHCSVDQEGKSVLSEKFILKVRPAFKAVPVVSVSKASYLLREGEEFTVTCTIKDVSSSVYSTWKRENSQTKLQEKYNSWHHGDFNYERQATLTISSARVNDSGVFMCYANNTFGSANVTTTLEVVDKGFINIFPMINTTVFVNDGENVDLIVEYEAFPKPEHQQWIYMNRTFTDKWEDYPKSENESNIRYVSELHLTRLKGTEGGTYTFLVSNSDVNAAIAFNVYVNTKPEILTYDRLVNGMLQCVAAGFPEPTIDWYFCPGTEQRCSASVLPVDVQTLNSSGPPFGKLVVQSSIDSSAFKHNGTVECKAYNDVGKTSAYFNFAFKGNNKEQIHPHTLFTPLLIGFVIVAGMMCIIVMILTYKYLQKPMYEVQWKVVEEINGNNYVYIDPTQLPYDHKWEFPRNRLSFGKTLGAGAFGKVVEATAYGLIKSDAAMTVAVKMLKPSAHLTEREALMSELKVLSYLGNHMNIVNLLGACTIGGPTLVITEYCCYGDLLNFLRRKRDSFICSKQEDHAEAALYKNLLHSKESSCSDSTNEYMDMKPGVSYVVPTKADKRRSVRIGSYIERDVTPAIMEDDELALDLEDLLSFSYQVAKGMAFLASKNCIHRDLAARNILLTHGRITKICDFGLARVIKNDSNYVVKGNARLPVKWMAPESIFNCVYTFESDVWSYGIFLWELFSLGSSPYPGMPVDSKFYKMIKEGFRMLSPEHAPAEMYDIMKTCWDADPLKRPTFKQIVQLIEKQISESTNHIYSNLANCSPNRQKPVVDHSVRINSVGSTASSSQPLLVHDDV
T1 sequence (Q9UK32 whole entry): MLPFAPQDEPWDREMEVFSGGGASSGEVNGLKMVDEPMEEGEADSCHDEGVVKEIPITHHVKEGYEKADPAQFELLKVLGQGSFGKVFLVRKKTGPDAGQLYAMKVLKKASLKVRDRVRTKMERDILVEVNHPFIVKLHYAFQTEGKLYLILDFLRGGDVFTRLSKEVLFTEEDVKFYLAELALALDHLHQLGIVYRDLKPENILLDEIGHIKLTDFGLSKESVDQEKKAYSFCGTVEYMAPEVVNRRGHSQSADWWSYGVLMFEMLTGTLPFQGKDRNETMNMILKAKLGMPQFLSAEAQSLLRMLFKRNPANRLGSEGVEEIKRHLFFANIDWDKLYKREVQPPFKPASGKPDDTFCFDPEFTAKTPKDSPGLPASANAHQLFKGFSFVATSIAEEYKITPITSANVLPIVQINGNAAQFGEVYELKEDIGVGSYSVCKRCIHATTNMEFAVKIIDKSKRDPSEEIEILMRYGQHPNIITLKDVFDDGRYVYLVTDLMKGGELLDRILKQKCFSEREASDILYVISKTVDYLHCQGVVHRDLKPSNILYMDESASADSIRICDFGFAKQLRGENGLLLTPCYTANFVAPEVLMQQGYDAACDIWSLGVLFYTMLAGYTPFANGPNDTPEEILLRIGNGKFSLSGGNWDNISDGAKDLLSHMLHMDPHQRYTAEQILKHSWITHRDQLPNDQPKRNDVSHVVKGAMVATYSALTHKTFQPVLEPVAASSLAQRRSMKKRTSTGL

C=CC(=O)Nc1cc(-n2c(=O)ccc3cnc4ccc(-n5cccn5)cc4c32)ccc1C [CHMFL-BTK-11]
remaining binding at 1 µM (LRRK2(G2019S)): 95%
remaining binding at 1 µM (MET): 100%
remaining binding at 1 µM (KIT(D816V)): 97%
remaining binding at 1 µM [1]: 91%
remaining binding at 1 µM (DAPK1): 100%
remaining binding at 1 µM (BRAF): 93%
remaining binding at 1 µM [2]: 92%
remaining binding at 1 µM (CLK4): 90%
remaining binding at 1 µM (SRPK3): 96%
remaining binding at 1 µM (ADCK3): 96%
remaining binding at 1 µM [3]: 94%
remaining binding at 1 µM (CAMKK2): 78%
remaining binding at 1 µM (MET(Y1235D)): 100%
remaining binding at 1 µM (PAK7): 100%
remaining binding at 1 µM (CDC2L5): 98%
remaining binding at 1 µM (NEK5): 73%
remaining binding at 1 µM (CAMKK1): 78%
remaining binding at 1 µM (FES): 90%
remaining binding at 1 µM (ABL1-phosphorylated): 78%
remaining binding at 1 µM (CSNK1G1): 100%
remaining binding at 1 µM (AAK1): 62%
remaining binding at 1 µM (BMPR1B): 97%
remaining binding at 1 µM (EGFR(L858R,T790M)): 42%
remaining binding at 1 µM (MST1R): 98%
